Assay [1] in a line: NO-eliminating ability by ESR with NO donor NOC-7 and Carboxy-PTIO. Here is the method: It was examined whether the vasodilator of the present invention has NO-eliminating ability. Specifically, as to the NO generation reaction, NOC-7 of NO donor was used to examine whether the NO concentration is reduced in the presence of BisEP-C3. First, 20 μl of a BisEp-C3 solution was added to 140 μl of a phosphate buffer solution (pH 7.4) having a concentration of […] so as to achieve a predetermined concentration (0, 25, 50, 100, 200, 400, or 600 μmol/1), and further 20 μl of a spin-trapping agent (100 μmol/1), Carboxy-PTIO(2-(4-Carboxyphenyl)-4, 4, 5, 5-tetramethylimidazoline-1-oxyl-3-oxide, sodium salt, final concentration 10 μmol/1) solution and 20 μl of a NO donor solution (10 mmol/1NOC-7 (1-Hydroxy-2-oxo-3-(N-methyl-3-aminopropyl)-3-methyl-1-triazene, final concentration […])) were added and mixed. The NO donor solution was prepared using a sodium hydroxide solution having a concentration of 0.1 mmol/1. Then, after the mixing, the mixture was incubated at room temperature for 3 minutes, and the obtained reaction solution was measured under the following ESR measurement conditions 2. Then, the proportion of the decrease in the signal intensity was calculated as the NO-eliminating ability with the signal intensity of the sample with no BisEP-C3 (0 μmol/1) being 100%.
ESR Measurement Conditions 2 […]

In assay [2] the test system is rat auricular subcutaneous blood vessel. The experiment in a line: Vasodilation in vivo, blood vessel diameter after intravenous administration. Here is the method:
Eight-week-old or older female rats (Wistar, body weight: approximately 200 g, n=1) were anesthetized by subcutaneous administration of urethane so as to be […] body weight. The hair of the auricles of the rats was then removed and the rats were fixed on a fixing table. After the fixing, the fixing table was placed under a microscope (Nikon OPTIphoto, produced by Nikon Corporation). In addition, a catheter was placed in the groin vein of the rat.
BisEP-C3 was dissolved in a saline solution to achieve a concentration of 3 mg/ml. The resulting saline solution containing BisEP-C3 was administered intravenously via the catheter so as to be 3 mg/kg body weight. Then, the hemodynamic course of the rat auricular subcutaneous blood vessel was photographed and recorded using a microscope at a predetermined period (30, 60, 120 or 180 minutes) before and after the administration.
The obtained images were classified into three blood vessel thicknesses (thick: 35-45 μm, medium: 15-20 μm, thin: 7-9 μm) based on the diameter of the blood vessel before administration. […] Further, for each selected site, the relative blood vessel diameter was calculated after the measurement of the blood vessel diameter, with the blood vessel diameter before administration being a reference (1). […] As a control, the blood vessel diameter was calculated in the same manner except that the saline solution was administered.

As to `CCN1N=C(C)/C(=C\C=C\c2c(C)nn(CC)c2O)C1=O` [BisEp-C3, 2,4-dihydro-4-[3-(1-ethyl-5-hydroxy-3-methyl-1H-pyrazol-4-yl)-2-propen-1-ylidene]-2-ethyl-5-methyl-3H-pyrazol-3-one], the NO-eliminating ability entry in assay [1] (0, 25, 50, 100, 200, 400, or 600 μmol/1, 3 minutes at room temperature, FIG. 14) is “eliminated NO in a concentration-dependent manner”. Also, in assay [1] (equal concentration, comparison with the superoxide test), the “superoxide decrease compared with NO-eliminating ability” value is reported as “the proportion of the decrease in the production amount of superoxide is larger than the NO-eliminating ability”. Also, the “relative value of the blood vessel diameter” value in assay [2] (3 mg/kg body weight intravenously, 30, 60, 120 or 180 minutes, versus saline control, FIG. 10) is reported as “dilated at any time after administration as compared to the control”. For the same compound, the “severity of dilatation by blood vessel size” value in assay [2] (thick 35-45 μm, medium 15-20 μm, thin 7-9 μm, 3 mg/kg intravenously) is reported as “remarkably observed in the smaller blood vessels”.

Source of the values: patent US12569470B2, “Vasodilator and use thereof” (Bioradical Research Institute Corp., priority 2019, dated 2026).
